The subject of data set [1] is human PASMC. Nature of the data set: PASMC proliferation in vitro, [3H]-thymidine incorporation. It is filed as cell-based. The following applies: benzbromarone 30 μM; PDGF-BB 10 ng/ml; human donor PASMC. As to the method: Human PASMC were seeded on 96-well plates. Cells were serum-starved for 12 hours, then underwent a 30 min pre-treatment with benzbromarone (30 μM) or vehicle. After the pre-treatment, serum-free SMC Medium containing PDGF-BB (10 ng/ml, Sigma) and benzbromarone was applied. The proliferation was determined by [^3H]-thymidine incorporation (BIOTREND Chemikalien GmbH, Cologne, Germany) as an index of DNA synthesis, and detected with a scintillation counter (Wallac 1450 MicroBeta TriLux Liquid Scintillation Counter & Luminometer, PerkinElmer, Waltham Mass., USA). Each independent experiment was performed in five replicates using PASMC isolated from six different donor lungs.
In experiments using TMEM16A silencing, cells were first seeded on 6-well plates and transfected with TMEM16A siRNA or control non-silencing RNA as described above. Cells were re-seeded into 96-well plates 24 hours after transfection, starved for 12 hours, then the induction and measurement of proliferation was performed as detailed above.
On the technique in general: Dividing cells build labelled thymidine or BrdU into new DNA.

Data set [2] relates to hypoxia-exposed mice. Nature of the data set: Chronic hypoxia-induced mouse model of PH, slow-release pellets. It counts as in vivo. An excerpt:
The experimental protocol is depicted in FIG. 12A. Male C57BL/6J mice (Charles River) at the age of 10 weeks were either placed into a hypoxic chamber (FiO2=0.1, n=16) for 4 weeks, or kept at normoxic conditions (control group, FiO2=0.21, n=8). According to the reports of Fagan et al. (Fagan, K A, et al. Am. J. Physiol. Lung Cell. Mol. Physiol. (2004) 287, L656-664) and Tuscherer et al. (Tuchscherer, H A, et al., J. Biomech. (2007) 40, 993-1001), a significant increase in the right ventricular systolic pressure (RVSP) and PA muscularization can be observed already after 14 days of hypoxia exposure. Therefore, mice subjected to hypoxia were randomized into two groups at the end of the second week. Eight mice received a subcutaneous slow-release pellet containing benzbromarone (Innovative Research of America, Sarasota Fla., USA) (HOX+BBR) and the other 8 mice received pellets with vehicle (HOX+Veh). The pellets ensured a stable blood concentration of the drug/vehicle over the next two weeks. At the end of week 4, all mice were subjected to in vivo hemodynamic measurements, followed by sacrifice and organ collection.
In mice, in vivo hemodynamics was performed under constant inhalation of 2% isoflurane/oxygen, using the closed chest technique through a small incision on the submandibular area. Body temperature was monitored and maintained at 37±1° C. A limb-lead ECG was recorded and the heart rate was kept constant to avoid changes in the sympathetic tone during the experiment. The right ventricle (RV) was catheterized via the right jugular vein using a 1.4 F Millar catheter (SPR-671, Millar, Houston Tex., USA) and right ventricular systolic pressure (RVSP) was measured continuously. Another catheter was inserted into the left carotid artery to monitor systemic blood pressure. After recording of stable values, the experiment was either continued with the assessment of the acute hemodynamic effects of benzbromarone (described above), or mice were sacrificed immediately for organ collection. […]
At the end of the hemodynamic measurements, animals were exsanguinated and the heart and lungs were isolated. […] Right ventricular hypertrophy was assessed by calculating the Fulton index, defined as RV weight/(LV+S weight).
Paraffin-embedded mouse and rat lung tissues were cut to 2 μm thin sections. Double immunohistochemical staining and quantification of the non-muscularized and muscularized arteries were made as previously described (Crnkovic, S, et al., Respir. Physiol. Neurobiol. (2011) 179, 342-345). […] Vessel remodeling in lung sections was quantified using semi-automated image analysis software (Visiopharm, Hoersholm, Denmark). […] The percentage of non-muscularized and muscularized pulmonary arteries, relative to the total number of pulmonary arteries, was calculated. […]

Data set [3] is described as follows: Solubility (comparative remark). It is filed as physicochemical.
In data set [4] the test system is monocrotaline (MCT)-treated rats. In words: Acute hemodynamic effects of benzbromarone in monocrotaline (MCT)-treated rats. It counts as in vivo, rat. The following applies: single i.v. bolus of 300 μM. As to the method: Male Sprague-Dawley rats (body weight: approx. 250 g, Charles River) received a single subcutaneous injection of monocrotaline (MCT, 60 mg/kg, n=16) or vehicle (control group, n=8). Since significant RVSP increase and PA muscularization had been detected as early as 12 days after the injection of MCT58, two weeks after monocrotaline treatment rats were randomly ordered into two groups. Subcutaneous slow-release pellets (Innovative Research of America) that contained either benzbromarone (MCT+BBR, n=8) or vehicle (MCT+Veh, n=8) were implanted. Four weeks after monocrotaline treatment all rats were subjected to echocardiography and in vivo hemodynamic measurements, thereafter they were sacrificed for organ collection. In rats, in vivo hemodynamic measurements were conducted as described above for the mice, with the exception that for the right ventricular and the systolic blood pressures, 2 F Millar Catheters (SPR-513 and SPR-320, respectively) were used. The above described control and MCT+Veh groups were included in this study. Benzbromarone was injected into the left jugular vein as a single bolus ([…], i.v. in 100 μl saline) and pressures were monitored until a maximum effect was observed (approx. 10 minutes).

In data set [5] the test system is U-46619 preconstricted isolated mouse PA. In words: Measurement of pulmonary artery tone ex vivo. Here is the method: Pulmonary artery rings were isolated from male C57BL/6J mice (20-25 weeks old, Charles River, Wilmington Mass., USA), as described by Jain et al. (Jain, P P, et al., Int. J. Nanomedicine (2014) 9, 3249-3261). Following stable contraction (approx. 30 minutes post-addition of U-46619, 30 nM), the arteries were subjected to cumulatively increasing concentrations (0.1 to 30 μM) of the TMEM6A blockers T16Ainh-A01 (Tocris) and benzbromarone (Sigma) in order to analyze the concentration-response relationships.

Where [6] appears, read: subcutaneous slow-release pellet weeks 2-4 of 4 weeks hypoxia, vs HOX+Veh.

`CCc1oc2ccccc2c1C(=O)c1cc(Br)c(O)c(Br)c1` [benzbromarone, (2-Ethyl-3-benzofuranyl)-(3,5-dibrom-4-hydroxyphenyl)ketone]: the “PDGF-BB induced PASMC proliferation” value in data set [1] was “decrease”. The “PCNA positive nuclei in the medial layer of the PA” value in data set [2] (hypoxic mice, lung sections (not shown)) is “reduced number”. Further, the “hypoxia-induced muscularization of pulmonary arteries” value in data set [2] (ratio of fully vs non-muscularised arteries compared to HOX+Veh) is “reversed”. Besides, in data set [2] (setting [6]), the Fulton index result is reported as “lowered” and the RVSP entry is “lowered”. Further, the “solubility compared with T16Ainh-A01” value in data set [3] is “better soluble”. In addition, the RVSP result in data set [4] (MCT-treated rats) is listed as “significant decrease”. The “RVSP in the control animals” value in data set [4] (vehicle-treated control rats) is “without affecting”. Moreover, the “vasorelaxation of preconstricted PA” value in data set [5] (cumulatively increasing concentrations 0.1 to 30 μM, U-46619 30 nM) was “dose-dependent vasorelaxation”. Further, the “potency compared with T16Ainh-A01” value in data set [5] (ex vivo PA vasodilator response) is “more potent”.

Source of the values: patent US20210156844A1, “TMEM16A Modulation for Diagnostic or Therapeutic Use in Pulmonary Hypertension (PH)” (Bayer Aktiengesellschaft, priority 2017, published 2021).
